{"source": "paper PMC7070709", "about": "“Design, Synthesis, and In Vitro Evaluation of Hydroxybenzimidazole-Donepezil Analogues as Multitarget-Directed Ligands for the Treatment of Alzheimer’s Disease” (Molecules, 2020)", "key": {"Aβ1–42 with Cu(II) [1]": {"target": "T1, Aβ1–42 with Cu(II) (Homo sapiens, UniProt P05067)", "T1 construct": "Aβ1–42 (40 μM) was incubated at 37 °C, for 24 h with or without Cu(II) (40 μM)", "T1 sequence (P05067 672-713)": "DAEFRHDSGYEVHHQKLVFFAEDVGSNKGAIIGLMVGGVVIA", "design": "method as in PMID 32171933", "settings": "copper 40 µM, cited from earlier work"}, "[2]": {"settings": "50% w/w DMSO/water, I = 0.1 M KCl, 25.0 °C; cited from earlier work"}, "[3]": {"settings": "pH 7.4, CL/CM = 10, CM = 10^−6 M; cited from earlier work"}, "Aβ1–42 [4]": {"target": "T2, Aβ1–42 (Homo sapiens, UniProt P05067)", "T2 construct": "Aβ1–42 (40 μM) was incubated at 37 °C, for 24 h with or without Cu(II) (40 μM)", "T2 sequence (P05067 672-713)": "as above", "design": "method as in PMID 32171933", "settings": "cited from earlier work"}, "[5]": {"target": "T3, AChE (type VI-S, from electric eel) (Electrophorus electricus, UniProt O42275)", "T3 construct": "purchased type VI-S", "T3 sequence (O42275 24-633)": "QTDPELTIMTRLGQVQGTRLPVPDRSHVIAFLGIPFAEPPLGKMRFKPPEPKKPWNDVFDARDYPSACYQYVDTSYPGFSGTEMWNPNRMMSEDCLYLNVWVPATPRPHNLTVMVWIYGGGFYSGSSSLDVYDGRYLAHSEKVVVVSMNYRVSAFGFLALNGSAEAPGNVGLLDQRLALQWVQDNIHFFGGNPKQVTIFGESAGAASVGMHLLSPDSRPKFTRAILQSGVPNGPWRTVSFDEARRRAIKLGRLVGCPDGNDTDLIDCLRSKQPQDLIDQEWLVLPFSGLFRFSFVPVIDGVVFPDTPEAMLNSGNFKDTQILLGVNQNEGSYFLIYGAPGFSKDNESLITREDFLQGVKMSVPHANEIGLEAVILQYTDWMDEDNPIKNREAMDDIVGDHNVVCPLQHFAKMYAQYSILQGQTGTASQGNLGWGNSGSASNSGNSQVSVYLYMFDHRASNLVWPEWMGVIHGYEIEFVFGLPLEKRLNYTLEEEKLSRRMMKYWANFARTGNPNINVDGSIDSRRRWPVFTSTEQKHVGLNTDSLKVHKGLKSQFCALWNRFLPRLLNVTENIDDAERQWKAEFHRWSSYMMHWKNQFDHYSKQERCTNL", "settings": "read-out: TcAChE Inhibition IC50; cited from earlier work"}, "[6]": {"assay": "Cu(II) chelation by potentiometry", "type": "physicochemical", "settings": "pH 7.4; read-out: conditional dissociation constant (K´d) for the copper complex", "source_text": "The metal chelating ability of hybrids 7 and 12, due to the BIM bidentate unity with (N,O) coordination mode, was studied by potentiometry. Figure 3A,B show a change in the deprotonation profile of the ligand titration curves due to the presence of the metal ions. In fact, the curves for the Cu(II)/L systems lie well below that of the ligand, while for the Zn(II)/L systems stay under for a > −1 (compound 7) or a > 0 (compound 12), thus supporting the formation of 1:1 and 1:2 M/L ratio complexes with the deprotonated and mono-protonated forms of the ligand and with relative metal dependent stability order (Cu > Zn). Table 1 contains the equilibrium models obtained from the fitting analysis of the potentiometric curves by program Hyperquad. In these equilibrium models, which the coordination core of the compounds integrates the bidentate (N,O) BIM moiety, MHL and MH2L2 correspond to species with the ligand containing one protonated nitrogen atom at the piperazine moiety, ML and ML2 correspond to complexes involving the completely deprotonated form of the ligand while MH-1L2 are mixed ligand-hydroxo metal complexes.\nSolutions: the aqueous copper (CuCl2, 0.015 M) and zinc (ZnCl2, 0.0156 M) stock solutions for potentiometric equilibrium studies were prepared from 1000 ppm standards (Titrisol) and their metal content was evaluated by atomic absorption. The titrant solution (0.1 M KOH) was obtained from a carbonate-free commercial concentrate (Titrisol) and standardized by potentiometric titration with potassium hydrogen phthalate. The titrant solution was discarded whenever the percentage of carbonate (Gran’s method) was about 0.5% of the total amount of base.\nMeasurements: compounds 7 and 12 were titrated in 50% (w/w) DMSO/H2O medium, at T = 25.0 ± 0.1 °C and ionic strength (I) 0.1 M KCl, using 0.1 M KOH as titrant. Both glass and Ag/AgCl reference electrodes were previously conditioned in DMSO/H2O mixtures with increasing amounts of DMSO and the response of the glass electrode was controlled by strong acid–strong base (HCl/KOH) calibrations with the determination of the Nernst parameters by Gran’s method. […] All titrations were performed in duplicate and under the stated experimental conditions the pKw value (13.6) was determined and subsequently used in the computations. The stepwise protonation constant of the ligand, Ki = [HiL]/([Hi–1L][H]), and the overall metal–complex stability constants, βMmHhLl = [MmHhLl]/([M]^m[H]^h[L]^l), were calculated by fitting the potentiometric titration data with Hyperquad 2008 [26]. The metal hydrolysis constants were determined under the defined experimental conditions (I = 0.1 M KCl, 50% w/w DMSO/H2O, T = 25.0 ± 0.1 °C) and the following values of stability constants were included in the fitting of experimental data towards the equilibrium models related to the Cu^2+/L and Zn^2+/L systems: log βCu2H−2 = −9.99; log βZnH−2 = −14.79, log βZnH−3 = −23.48. Species distribution curves were plotted with the Hyss program."}, "[7]": {"settings": "pH 7.4, CL/CM = 10, CM = 10^−6 M; cited from earlier work", "remark": "listed apart in the source"}, "SH-SY5Y cells": {"system": "SH-SY5Y cells", "assay": "Neuroprotection from Aβ42-induced toxicity (MTT)", "type": "cell-based, human", "settings": "compound 2.5 µM, 1 h pre-incubation plus 24 h co-incubation with Aβ42 1 µM", "experimental": "Extracellular formation of senile plaques of aggregated Aβ along with the production of reactive oxygen species (ROS) are processes involved in the neurodegeneration that characterize AD [42]. […] Additionally, ROS production is also one of the hallmarks associated with AD pathogenesis.\nSH-SY5Y human neuroblastoma cell line (ATCC-CRL-2266) was cultured in Dulbecco’s Modified Eagle Medium (DMEM) (Gibco-Invitrogen, Life Technologies Ltd., Liverpool, UK) supplemented with 10% of heat inactivated fetal bovine serum, 50 U/mL penicillin, and 50 μg/mL streptomycin, at 37 °C in 5% CO2. For the cell viability experiments, cells were plated with a density of 0.12 × 10^6 cells/mL. All the tested compounds (from 7 to 12) were dissolved in DMSO and aliquots were stored at −20 °C with a stock concentration of 25 mM. To choose the highest non-toxic concentration of the compounds, a concentration screening was performed (from 2.5 μM to 10 μM). For the experiments, all the compounds were added to the medium at a final concentration of 2.5 μM. […] Cells were pre-incubated for 1 h with the compounds and then incubated with Aβ1–42 or with Fe/Asc for an additional 24 h. […]\nCell viability was determined using the colorimetric 3-(4,5-dimethylthiazol-2-yl)-2,5-diphenyltetrazolium bromide (MTT) assay. […] The absorbance of the plate was measured at 570 nm. […]"}, "Aβ1–42 [8]": {"target": "T2, Aβ1–42", "assay": "Inhibition of self-mediated Aβ1–42 aggregation (thioflavin T fluorescence)", "type": "biochemical", "settings": "inhibitor 40 µM, Aβ1–42 40 μM, 24 h, 37 °C; read-out: Aβ1–42 Aggregation Inhibition, Self-Induced", "experimental": "(§1) The anti-amyloidogenic capacity of the compounds was also evaluated in vitro, in the absence and presence of Cu(II), based on the measurement of the fluorescence emission of Thioflavin T (ThT), a stain known by its Aβ fibril binding capacity. This binding interaction can be analyzed by fluorimetry, since the presence of ThT-fibrils increases the absorbance and the emission of the ThT dye, and it also induces red shifts on the absorbance (from 385 to 446 nm) and emission peaks (from 445 to 485 nm). All the measurements were performed after incubation (24 h, 37 °C) of the self-mediated and Cu^2+-induced Aβ aggregates in the presence/absence of the compounds under evaluation.\n(§2) Herein, due to solubility problems of some compounds in the phosphate buffer (0.215 M, pH 8.0) of the working medium, the assays were carried out in the presence of 40 μM concentration of inhibitor and 20 μM in the case of compound 4, instead of 80 μM as previously reported. […] The activity dependence on ligand structural features may be mainly explained by the different ability for intercalation into the fibrils, as already assumed for other inhibitors. […] The data obtained for compounds 6 and 7 indicate that the presence of R1 = F, -NO2 substituents in the BIM have some small positive effect on the inhibition of Aβ aggregation.\n(§3) The Aβ peptide was treated with 1,1,1,3,3,3-hexafluoropropan-2-ol (HFIP) and dissolved in a CH3CN/Na2CO3 (300 μM)/NaOH (250 μM) (48.3:48.3:4.3, v/v/v) mixture in order to have a stable stock solution, avoiding self-aggregation of Aβ1–42. Then, the prepared 500 μM solution was diluted at 40 μM in phosphate buffer (0.215 M, pH 8.0).\n(§4) The solutions of the tested compounds were prepared in MeOH (1 mg/mL), being further diluted in phosphate buffer to a concentration of 480 μM. For copper-induced aggregation studies, a solution of CuCl2 240 μM was prepared from a stock standard solution (0.015 M). To perform the assays for the Aβ1–42 aggregation inhibition, a reported method, based on the fluorescence emission of thioflavin T (ThT), was followed. Aβ1–42 (40 μM) was incubated at 37 °C, for 24 h with or without Cu(II) (40 μM) in a phosphate buffer in presence or absence of the single ligand (40 μM and 20 μM for compound 4). Then, the samples were added to a 96-well plate with […] of 5 μM ThT in 50 mM glycine-NaOH (pH 8.5) buffer. Blank samples were prepared without the peptide for each concentration. The ThT fluorescence was measured at 446 nm (excitation) and 485 nm (emission). The inhibition percentage of aggregation was calculated by Equation (2), in which IFi and IF0 corresponded to the fluorescence intensities, in the presence and in the absence of the tested compound, subtracted of the fluorescence intensities due to the respective blanks.\n(§5) The reported values were obtained as the mean ± SEM of duplicate of three different experiments."}, "[9]": {"target": "T3, AChE (type VI-S, from electric eel)", "assay": "AChE inhibition, adaptation of Ellman's method", "type": "biochemical", "settings": "means of three independent experiments ± SD, read-out: TcAChE Inhibition IC50", "experimental": "The inhibition of AChE by the DNP-BIM hybrids herein studied was assayed by using a variation of Ellman´s test and the IC50 values obtained are included in Table 2. […]. An adaptation of the Ellman´s method, previously described, was used to measure the acetylcholinesterase inhibitory activity. The assay solution contained 374 µL of 4-(2-hydroxyethyl)-1-piperazineethanesulfonic acid (HEPES) buffer (50 mM, pH 8.0), 476 µL of 5,5’-dithiobis-(2-nitrobenzoic acid) (DTNB, 3 mM), a variable volume (10–50 µL) of the stock solution of each compound in methanol (1 mg/mL), 25 µL of AChE (type VI-S, from electric eel) stock solution, and the necessary amount of methanol to obtain 0.925 mL of sample mixture in a 1 mL cuvette. The samples were incubated for 15 min and then 75 µL of acetylthiocholine iodide (AChI) solution (16 mM) was added. The reaction was monitored for 5 min at 405 nm. Assays were run with a blank containing all the components except AChE, which was replaced by HEPES buffer. The rates of the reaction were calculated as well as the enzyme activity. A control reaction was carried out using methanol as a sample solution and it was considered as 100% activity.\nThe inhibition curves were obtained by plotting the percentage of enzymatic inhibition versus inhibitor concentration and a calibration curve was got from which the linear regression parameters were obtained."}, "Aβ1–42 with Cu(II) [10]": {"target": "T1, Aβ1–42 with Cu(II)", "assay": "Inhibition of Cu-induced Aβ1–42 aggregation (thioflavin T fluorescence)", "type": "biochemical", "settings": "inhibitor 40 µM, copper 40 µM, Aβ1–42 40 μM, 24 h, 37 °C", "experimental": "as §1, §2, §3, §4, §5"}}, "note": "“Also recorded” adds a separate entry of the source. Like-named read-outs stand apart in the source and are kept apart here.", "data": [{"smiles": "O=C(NCCN1CCN(Cc2ccccc2)CC1)c1ccc2nc(-c3ccccc3O)[nH]c2c1", "note": "[Compound 2]", "values": [{"measurement": "Aβ1–42 Aggregation Inhibition, Cu-Induced", "setting": "Aβ1–42 with Cu(II) [1]; footnote d, Cinhibitor = 80 µM", "result": "37.7 ^d %"}, {"measurement": "log K1, stepwise protonation constant (011)", "setting": "[2]", "result": "9.04(3)"}, {"measurement": "log K2, stepwise protonation constant (021)", "setting": "[2]", "result": "6.76(6)"}, {"measurement": "log K3, stepwise protonation constant (031)", "setting": "[2]", "result": "3.37(7)"}, {"measurement": "pZn (pM = −log[M])", "setting": "[3]", "result": 6.3}, {"measurement": "Aβ1–42 Aggregation Inhibition, Self-Induced", "setting": "Aβ1–42 [4]; footnote d, Cinhibitor = 80 µM", "result": "25.3 ^d %"}, {"measurement": "IC50", "setting": "[5]", "result": "6.9 ± 0.6", "unit": "µM"}, {"measurement": "Kd", "setting": "[6]", "result": 0.024, "unit": "µM"}, {"measurement": "pCu (pM = −log[M])", "setting": "[7]", "result": 10.7}]}, {"smiles": "O=C(NCCN1CCN(Cc2ccccc2F)CC1)c1ccc2nc(-c3ccccc3O)[nH]c2c1", "note": "[Compound 10, N-(2-(4-(2-Fluorobenzyl)piperazin-1-yl)ethyl)-2-(2-hydroxyphenyl)-1H-benzo[d]imidazole-6-carboxamide]", "values": [{"measurement": "neuroprotective effect against Aβ42-induced cell toxicity (cell viability, MTT)", "setting": "SH-SY5Y cells", "result": "remarkable reduction of Aβ-induced cell toxicity; also recorded: prevented Aβ-induced cell toxicity"}, {"measurement": "inhibition at 40 µM", "setting": "Aβ1–42 [8]", "result": 39.1, "unit": "%"}, {"measurement": "IC50", "setting": "[9]", "result": "4.32 ± 0.03", "unit": "µM"}, {"measurement": "inhibition at 40 µM", "setting": "Aβ1–42 with Cu(II) [10]", "result": 75.8, "unit": "%"}]}, {"smiles": "COc1ccc(-c2nc3ccc(C(=O)NCCN4CCN(Cc5ccccc5)CC4)cc3[nH]2)c(O)c1", "note": "[Compound 9, N-(2-(4-Benzylpiperazin-1-yl)ethyl)-2-(4-metoxy-2-hydroxyphenyl)-1H-benzo[d]imidazole-5-carboxamide]", "values": [{"measurement": "neuroprotective effect against Aβ42-induced cell toxicity (cell viability, MTT)", "setting": "SH-SY5Y cells", "result": "remarkable reduction of Aβ-induced cell toxicity; also recorded: prevented Aβ-induced cell toxicity"}, {"measurement": "inhibition at 40 µM", "setting": "Aβ1–42 [8]", "result": 43.7, "unit": "%"}, {"measurement": "IC50", "setting": "[9]", "result": "1.87 ± 0.8", "unit": "µM"}, {"measurement": "inhibition at 40 µM", "setting": "Aβ1–42 with Cu(II) [10]", "result": 66, "unit": "%"}]}, {"smiles": "O=C(NCC1CCN(Cc2ccccc2)CC1)c1ccc2nc(-c3ccccc3O)[nH]c2c1", "note": "[Compound 1]", "values": [{"measurement": "Aβ1–42 Aggregation Inhibition, Cu-Induced", "setting": "Aβ1–42 with Cu(II) [1]; footnote e", "result": "69.0 ^e %"}, {"measurement": "log K1, stepwise protonation constant (011)", "setting": "[2]", "result": "8.671(1)"}, {"measurement": "log K2, stepwise protonation constant (021)", "setting": "[2]", "result": "7.39(1)"}, {"measurement": "log K3, stepwise protonation constant (031)", "setting": "[2]", "result": "3.21(1)"}, {"measurement": "pZn (pM = −log[M])", "setting": "[3]", "result": 6.3}, {"measurement": "Aβ1–42 Aggregation Inhibition, Self-Induced", "setting": "Aβ1–42 [4]; footnote e", "result": "48.8 ^e %"}, {"measurement": "IC50", "setting": "[5]", "result": "4.2 ± 0.8", "unit": "µM"}, {"measurement": "Kd", "setting": "[6]", "result": 0.034, "unit": "µM"}]}]}
